Values after ≈ are worked out from the molar mass of the structure shown.
What was measured:
L1210 cancer cells = assay: Evaluation of antitumor activity (L1210 growth, 4 days, trypan blue); format: cell-based; conditions: Mus musculus, 96 h, Table 37, L1210, 1×10^5 cells/ml
Experimental: Cancer cells were grown in an RPMI 1640 culture medium containing 10% of fetal calf serum.
The compound to be tested was dissolved in 99.5% ethanol and was added to the medium so that the final concentration of the ethanol was 0.1% or less. As a control, 0.1% ethanol was used. L1210 cancer cells were inoculated at a concentration of 1×10^5 cells/ml in the medium and were grown for 4 days. The number of live cells was determined by trypan blue staining.

L1210 tumor cells = assay: Measurement of anticancer activity (L1210 growth, 2 days, trypan blue); format: cell-based; conditions: Mus musculus, 48 h, Table 25, L1210, 2.5×10^4 cells/ml
Experimental: Tumor cells were grown in an RPMI 1640 medium containing of 10% fetal calf serum.
The compound was dissolved in 99.5% ethanol, adjusted before use so that the final concentration of ethanol was 0.1% or less, and added to the medium.
The control was 0.1% ethanol, and L1210 tumor cells were inoculated in the medium in a concentration of 2.5×10^4 cells/ml and grown for 2 days. The number of surviving cells were measured by trypan blue staining.

[1] = test system: human osteoblast (KK-3, 18PDL); assay: Determination (3) of bone formation activity (KK-3, 14 days); format: cell-based; conditions: Table 40; for ALP: control 0.72 ± 0.17; for P: control 51 ± 5; for Ca: control 90 ± 8
Experimental: (§1) Human osteoblast (KK-3, 18PDL) was cultured in α-MEM containing 10% fetal bovine serum, and when a stable growth was attained, a predetermined concentration of the compound was added in the presence of 2 mM α-glycerophosphoric acid salt, followed by treatment for 14 days. The cell layer was washed with a physioligical salt solution and the alkali phosphatase activity then measured by absorption at OD415. Next, calcium and phosphorus were extracted with a 2N hydrochloric acid solution and quantitated.

[2] = test system: human osteoblast (KK-3, 18PDL); assay: Determination (2) of bone formation activity (KK-3, 14 days); format: cell-based; conditions: Table 39; for ALP: control 0.44 ± 0.12; for Ca: control 106 ± 12; for P: control 61 ± 10
Experimental: as §1, with “physiological” for “a physioligical”, “Then,” for “Next,”

[3] = test system: human osteoblast (SAM-1, 12PDL); assay: Determination (1) of bone formation activity (SAM-1, 25 days); format: cell-based; conditions: Table 38; for Ca per DNA: control 0.386 ± 0.245; for ALP per DNA: control 1.148 ± 0.050; for P per DNA: control 1.528 ± 0.316
Experimental: Human osteoblast (SAM-1, 12PDL) was cultured in α-MEM containing 10% fetal bovine serum, and when a stable growth was attained, a predetermined concentration of the compound was added in the presence of 2 mM α-glycerophosphoric acid salt, followed by treatment for 25 days. The cell layer was washed with Hank's solution and the alkali phosphatase activity then measured by absorption at OD410. Next, calcium and phosphorus were extracted with a 5% perchloric acid solution and quantitated, and DNA was extracted with 5% perchloric acid at 90° C., and the weight thereof quantitated. These evaluations were conducted according to the methods of Koshihara et al (Biochemical and Biophysical Research Communication Vol 145, No. 2, 1987, p. 651).

human osteoblasts = conditions: Koshihara et al., Biochemical Society of Japan (Preprints, 1988, p.767); cited from earlier work

Structure (SMILES): CCCCCC(O)C=CC1C=C(SC)C(=O)C1=CCCCCCC(=O)OC (stereo not drawn) [drawing 1097, 2-methylthio-5-(6-methoxycarbonyl-hexylidene)-4-(3-hydroxy-1-octenyl)-2-cyclopentenone]
- IC50 (L1210 cancer cells): 5 µg/mL (≈ 12.7 µM)

Structure (SMILES): COC(=O)COc1cccc(C=C2C(=O)C(SC)=CC2(O)CCCCOc2ccccc2)c1 (stereo not drawn) [drawing 1060]
- IC50 (L1210 tumor cells): 0.83 µg/mL (≈ 1.77 µM)

Structure (SMILES): CSC1=CC(=CCCCOc2ccccc2)/C(=C/C=C/C(O)CCCO)C1=O (stereo not drawn) [drawing 1108, 2-methylthio-5-[( -- Z)-4,7-dihydroxy-2-heptenylidene]-4-(4-phenoxybutylidene)-2-cyclopentenone]
- ALP ([1]; 10^-6 M): 0.75 ± 0.17 OD 415 nm/dish
- P ([1]; 10^-6 M): 57 ± 1 μg/dish
- Ca ([1]; 10^-6 M): 105 μg/dish
- ALP ([1]; 10^-7 M): 0.69 ± 0.02 OD 415 nm/dish
- P ([1]; 10^-7 M): 60 ± 14 μg/dish
- Ca ([1]; 10^-7 M): 110 ± 30 μg/dish

Structure (SMILES): CSC1=CC(O)C(=CC=CC(O)CCCO)C1=O (stereo not drawn) [drawing 1064]
- IC50 (L1210 tumor cells): 0.1 µg/mL (≈ 0.37 µM)

Structure (SMILES): C[S+]([O-])C1=CC(O)(CCCCOc2ccccc2)/C(=C/C=C/C(O)CCCO)C1=O (stereo not drawn) [drawing 1102, 2-methylsulfinyl-5-[( -- Z)-4,7-dihydroxy-2-heptenylidene]-4-(4-phenoxybutyl)-4-hydroxy-2-cyclopentenone]
- IC50 (L1210 cancer cells): 1 µg/mL (≈ 2.3 µM)

Structure (SMILES): CSC1=CC(O)(CCCCOc2ccccc2)/C(=C/C=C/C(O)CCCO)C1=O (stereo not drawn) [drawing 1101, 2-methylthio-5-[( -- Z)-4,7-dihydroxy-2-eptenylidene]-4-(4-phenoxybutyl)-4-hydroxy-2-cyclopentenone]
- IC50 (L1210 cancer cells): 1.2 µg/mL (≈ 2.87 µM)

Structure (SMILES): CSC1=CC(=CCCCOc2ccccc2)/C(=C/C=C/C(O)CCCO)C1=O (stereo not drawn) [drawing 1103, 2-methylthio-5-[( -- Z)-4,7-dihydroxy-2-eptenylidene]-4-(4-phenoxybutylidene)-2-cyclopentenone]
- IC50 (L1210 cancer cells): 3.5 µg/mL (≈ 8.74 µM)

Structure (SMILES): CS(=O)(=O)C1=CC(O)(CCCCOc2ccccc2)/C(=C\C=C\C(O)CCCO)C1=O (stereo not drawn) [2-methylsulfonyl-5-[( -- E)-4,7-dihydroxy-2-heptenylidene]-4-(4-phenoxybutyl)-4-hydroxy-2-cyclopentenone]
- IC50 (L1210 cancer cells): 2 µg/mL (≈ 4.44 µM)

Structure (SMILES): C[S+]([O-])C1=CC(O)(CCCCOc2ccccc2)/C(=C/C=C/C(O)CCCO)C1=O (stereo not drawn) [drawing 1109, 2-methylsulfinyl-5-[( -- Z)-4,7-dihydroxy-2-heptenylidene]-4-(4-phenoxybutylidene)-4-hydroxy-2-cyclopentenone]
- ALP ([1]; 10^-6 M): 0.92 ± 0.9 OD 415 nm/dish
- P ([1]; 10^-6 M): 61 ± 4 μg/dish
- Ca ([1]; 10^-6 M): 109 μg/dish
- ALP ([1]; 10^-7 M): 0.81 ± 0.11 OD 415 nm/dish
- P ([1]; 10^-7 M): 52 ± 1 μg/dish
- Ca ([1]; 10^-7 M): 89 ± 1 μg/dish

Structure (SMILES): O=C1C(SC2CCCCC2)=CC(O)(CCCCOc2ccccc2)C1=CC=CC(O)CCCO (stereo not drawn) [drawing 1059]
- IC50 (L1210 tumor cells): 0.78 µg/mL (≈ 1.6 µM)

Structure (SMILES): CCCCC1=C(Sc2nccn2C)C(=O)C(=CC=CC(O)CCCO)C1(O)CCCCOc1ccccc1 (stereo not drawn) [drawing 1063]
- IC50 (L1210 tumor cells): 2.3 µg/mL (≈ 4.25 µM)

Structure (SMILES): CCOc1ccc2nc(SC3=CC(O)(CCCCOc4ccccc4)C(=CC=CC(O)CCCO)C3=O)sc2c1 (stereo not drawn) [drawing 1061]
- IC50 (L1210 tumor cells): 0.02 µg/mL (≈ 0.0344 µM)

Structure (SMILES): CSC1=CC(O)(CCCCOc2ccccc2)/C(=C/C=C/C(O)CCCO)C1=O (stereo not drawn) [drawing 1106, 2-methylthio-5-[( -- Z)-4,7-dihydroxy-2-heptenylidene]-4-(4-phenoxybutyl)-4-hydroxy-2-cyclopentenone]
- ALP ([2]; 10^-6 M): 1.12 OD 415 nm/dish
- Ca ([2]; 10^-6 M): 168 μg/dish
- ALP ([2]; 10^-7 M): 0.48 ± 0.08 OD 415 nm/dish
- P ([2]; 10^-7 M): 63 ± 6 μg/dish
- Ca ([2]; 10^-7 M): 111 ± 9 μg/dish
- ALP ([2]; 10^-8 M): 0.28 ± 0.06 OD 415 nm/dish
- P ([2]; 10^-8 M): 47 ± 6 μg/dish
- Ca ([2]; 10^-8 M): 84 ± 10 μg/dish

Structure (SMILES): CSC1=CC(O)(CCCCOc2ccccc2)/C(=C/C=C/C(O)CCCO)C1=O (stereo not drawn) [drawing 1105, 2-methylthio-5-[( -- Z)-4,7-dihydroxy-2-heptenylidene]-4-(4-phenoxybutyl)-4-hydroxy-2-cyclopentenone]
- Ca per DNA ([3]; 10^-6 M): 29.410 μg/μg DNA
- ALP per DNA ([3]; 10^-6 M): 1.447 OD 410 nm/μg DNA
- P per DNA ([3]; 10^-6 M): 5.743 ± 0.630 μg/μg DNA
- Ca per DNA ([3]; 10^-7 M): 8.847 ± 1.485 μg/μg DNA
- ALP per DNA ([3]; 10^-7 M): 0.333 ± 0.039 OD 410 nm/μg DNA
- P per DNA ([3]; 10^-7 M): 5.270 ± 0.144 μg/μg DNA

Structure (SMILES): CCCCCC(O)C=CC1C=C(SC)C(=O)C1=CCCCCCC(=O)OC (stereo not drawn) [drawing 1111, 2-methylthio-5-(6-methoxy-carbonylhexylidene)-4-(3-hydroxy-1-octenyl)-2-cyclo-pentenone]
- ALP ([1]; 10^-6 M): 0.68 ± 0.10 OD 415 nm/dish
- P ([1]; 10^-6 M): 43 ± 4 μg/dish
- Ca ([1]; 10^-6 M): 79 μg/dish
- ALP ([1]; 10^-7 M): 0.73 ± 0.02 OD 415 nm/dish
- P ([1]; 10^-7 M): 46 ± 2 μg/dish
- Ca ([1]; 10^-7 M): 78 ± 4 μg/dish

Structure (SMILES): C[S+]([O-])C1=CC(=CCCCOc2ccccc2)/C(=C/C=C/C(O)CCCO)C1=O (stereo not drawn) [2-methylsulfinyl-5-[( -- Z)-4,7-dihydroxy-2-heptenylidene]-4-(4-phenoxybutylidene)-2-cyclopentenone]
- IC50 (L1210 cancer cells): 0.1 µg/mL (≈ 0.24 µM)

Structure (SMILES): CSC1=CC(=CCCCOc2ccccc2)C(=C/C=C\C(O)CCCO)C1=O (stereo not drawn) [2-methylthio-5-[( -- Z)-4,7-dihydroxy-2-heptenylidene]-4-(4-phenoxybutylidene)-2-cyclopentenone]
- ALP ([1]; 10^-6 M): 0.94 ± 0.11 OD 415 nm/dish
- P ([1]; 10^-6 M): 60 ± 0.5 μg/dish
- Ca ([1]; 10^-6 M): 109 μg/dish
- ALP ([1]; 10^-7 M): 0.94 ± 0.07 OD 415 nm/dish
- P ([1]; 10^-7 M): 48 ± 4 μg/dish
- Ca ([1]; 10^-7 M): 85 ± 10 μg/dish

Structure (SMILES): CCCCC[C@H](O)/C=C/[C@H]1C(=O)C[C@H](O)[C@@H]1C/C=C\CCCC(=O)O [prostaglandin D2]
- calcification by human osteoblasts (human osteoblasts): accelerated

Structure (SMILES): Cn1ccnc1SC1=CC(O)(CCCCOc2ccccc2)C(=CC=CC(O)CCCO)C1=O (stereo not drawn) [drawing 1062]
- IC50 (L1210 tumor cells): 0.15 µg/mL (≈ 0.31 µM)

Structure (SMILES): CSC1=CC(CCCCOc2ccccc2)C(=CC=CC(O)CCCO)C1=O (stereo not drawn)
- IC50 (L1210 tumor cells): 1.9 µg/mL (≈ 4.72 µM)

Structure (SMILES): CSC1=CC(O)(CCCCOc2ccccc2)/C(=C\C=C\C(O)CCCO)C1=O (stereo not drawn) [2-methylthio-5-[( -- E)-4,7-dihydroxy-2-heptenylidene]-4-(4-phenoxybutyl)-4-hydroxy-2-cyclopentenone]
- ALP ([2]; 10^-6 M): 0.97 OD 415 nm/dish
- Ca ([2]; 10^-6 M): 168 μg/dish
- ALP ([2]; 10^-7 M): 0.56 ± 0.08 OD 415 nm/dish
- P ([2]; 10^-7 M): 64 ± 3 μg/dish
- Ca ([2]; 10^-7 M): 114 ± 4 μg/dish
- ALP ([2]; 10^-8 M): 0.24 ± 0.02 OD 415 nm/dish
- P ([2]; 10^-8 M): 47 ± 2 μg/dish
- Ca ([2]; 10^-8 M): 87 ± 6 μg/dish

Structure (SMILES): C[S+]([O-])C1=CC(O)(CCCCOc2ccccc2)/C(=C\C=C\C(O)CCCO)C1=O (stereo not drawn) [2-methylsulfinyl-5-[( -- E)-4,7-dihydroxy-2-heptenylidene]-4-(4-phenoxybutyl)-4-hydroxy-2-cyclopentenone]
- IC50 (L1210 cancer cells): 1 µg/mL (≈ 2.3 µM)

Structure (SMILES): CCCCCC(O)C=CC1C=C([S+](C)[O-])C(=O)C1=CCCCCCC(=O)OC (stereo not drawn) [2-methylsulfinyl-5-(6-methoxycarbonyl-hexylidene)-4-(3-hydroxy-1-octenyl)-2-cyclopentenone]
- IC50 (L1210 cancer cells): 4 µg/mL (≈ 9.74 µM)

Structure (SMILES): Cn1ccnc1SC1=CC(O)(CCCCOc2ccccc2)C(C(O)C=CC(O)CCCO)C1=O (stereo not drawn) [drawing 1066]
- IC50 (L1210 tumor cells): 0.32 µg/mL (≈ 0.637 µM)

Reference: US5216183A, “Cyclopentanone/cyclopentenone derivative” (Teijin Limited, priority 1988, dated 1993)
